Source: publication PMC6459026 (European journal of medicinal chemistry, 2019)

Key:
HIV-1 RT pol = HIV-1 RT pol (Human immunodeficiency virus type 1 group M subtype B, UniProt P04585); test: RT polymerase assay; format: biochemical
HIV-1 IN (INST activity) = HIV-1 IN (INST activity) (Human immunodeficiency virus type 1 group M subtype B, UniProt P04585); test: biochemical

| Compound | IC50 (HIV-1 RT pol) [µM] | IC50 (HIV-1 IN (INST activity)) [µM] |
| --- | --- | --- |
| Cc1ccc(C(=O)c2cc(=O)n(O)c(=O)[nH]2)cc1 [Compound 7a, 3-Hydroxy-6-(4-methylbenzoyl)pyrimidine-2,4(1H,3H)-dione] | > 10 |  |
| O=C(c1ccc(C(F)(F)F)cc1)c1cc(=O)n(O)c(=O)[nH]1 [Compound 7b, 3-Hydroxy-6-(4-(trifluoromethyl)benzoyl)pyrimidine-2,4(1H,3H)-dione] | > 10 |  |
| O=C(c1ccc(F)cc1)c1cc(=O)n(O)c(=O)[nH]1 [Compound 7c, 6-(4-Fluorobenzoyl)-3-hydroxypyrimidine-2,4(1H,3H)-dione] | > 10 |  |
| COC(=O)c1ccc(C(=O)c2cc(=O)n(O)c(=O)[nH]2)cc1 [Compound 7d, Methyl 4-(1-hydroxy-2,6-dioxo-1,2,3,6-tetrahydropyrimidine-4-carbonyl)benzoate] | > 10 |  |
| Cc1cc(C)cc(C(=O)c2cc(=O)n(O)c(=O)[nH]2)c1 [Compound 7e, 6-(3,5-Dimethylbenzoyl)-3-hydroxypyrimidine-2,4(1H,3H)-dione] | > 10 |  |
| Cc1ccc(-c2ccc(C(=O)c3cc(=O)n(O)c(=O)[nH]3)cc2)cc1 [Compound 8a, 3-Hydroxy-6-(4’-methyl-[1,1’-biphenyl]-4-carbonyl)pyrimidine-2,4(1H,3H)-dione] | > 10 |  |
| O=C(c1ccc(-c2ccc(C(F)(F)F)cc2)cc1)c1cc(=O)n(O)c(=O)[nH]1 [Compound 8b, 3-Hydroxy-6-(4’-(trifluoromethyl)-[1,1’-biphenyl]-4-carbonyl)pyrimidine-2,4(1H,3H)-dione] | > 10 | > 100 |
| O=C(c1ccc(-c2ccc(F)cc2)cc1)c1cc(=O)n(O)c(=O)[nH]1 [Compound 8c, 6-(4’-Fluoro-[1,1’-biphenyl]-4-carbonyl)-3-hydroxypyrimidine-2,4(1H,3H)-dione] | > 10 |  |
| COC(=O)c1ccc(-c2ccc(C(=O)c3cc(=O)n(O)c(=O)[nH]3)cc2)cc1 [Compound 8d, Methyl 4’-(1-hydroxy-2,6-dioxo-1,2,3,6-tetrahydropyrimidine-4-carbonyl)-[1,1’-biphenyl]-4-carboxylate] | > 10 |  |
| Cc1cc(C)cc(-c2ccc(C(=O)c3cc(=O)n(O)c(=O)[nH]3)cc2)c1 [Compound 8e, 6-(3’,5’-Dimethyl-[1,1’-biphenyl]-4-carbonyl)-3-hydroxypyrimidine-2,4(1H,3H)-dione] | > 10 |  |
| O=C(c1ccc(-c2ccccc2)cc1)c1cc(=O)n(O)c(=O)[nH]1 [Compound 8f, 6-([1,1’-Biphenyl]-4-carbonyl)-3-hydroxypyrimidine-2,4(1H,3H)-dione] | > 10 |  |
| O=C(c1cccc(-c2ccccc2)c1)c1cc(=O)n(O)c(=O)[nH]1 [Compound 8g, 6-([1,1’-Biphenyl]-3-carbonyl)-3-hydroxypyrimidine-2,4(1H,3H)-dione] | > 10 |  |
| COc1ccc(-c2ccc(C(=O)c3cc(=O)n(O)c(=O)[nH]3)cc2)cc1 [Compound 8h, 3-Hydroxy-6-(4’-methoxy-[1,1’-biphenyl]-4-carbonyl)pyrimidine-2,4(1H,3H)-dione] |  | > 100 |
| O=C(c1ccc(-c2ccc(Cl)c(F)c2)cc1)c1cc(=O)n(O)c(=O)[nH]1 [Compound 8l, 6-(4’-Chloro-3’-fluoro-[1,1’-biphenyl]-4-carbonyl)-3-hydroxypyrimidine-2,4(1H,3H)-dione] | > 10 |  |
| CCOCn1c(C(=O)c2ccc(-c3ccccc3)cc2)cc(=O)n(O)c1=O [Compound 16f, 6-([1,1’-Biphenyl]-4-carbonyl)-1-(ethoxymethyl)-3-hydroxypyrimidine-2,4(1H,3H)-dione] | > 10 | > 100 |
| CCOCn1c(C(=O)c2cccc(-c3ccccc3)c2)cc(=O)n(O)c1=O [Compound 16g, 6-([1,1’-Biphenyl]-3-carbonyl)-1-(ethoxymethyl)-3-hydroxypyrimidine-2,4(1H,3H)-dione] | > 10 | > 100 |
| CCOCn1c(C(C#N)c2cc(C)cc(C)c2)cc(=O)n(O)c1=O (centres unmarked) [Compound 17e, 2-(3,5-Dimethylphenyl)-2-(3-(ethoxymethyl)-1-hydroxy-2,6-dioxo-1,2,3,6-tetrahydropyrimidin-4-yl)acetonitrile] | > 10 | > 100 |
| CCOCn1c(C(C#N)c2ccc(-c3ccccc3)cc2)cc(=O)n(O)c1=O (centres unmarked) [Compound 18f, 2-([1,1’-Biphenyl]-4-yl)-2-(3-(ethoxymethyl)-1-hydroxy-2,6-dioxo-1,2,3,6-tetrahydropyrimidin-4-yl)acetonitrile] | > 10 | > 100 |
